Laboratory results published in patent US20100222349A1, “QUINOLINE DERIVATIVES USED TO TREAT INFLAMMATORY AND ALLERGIC DISEASES” (Glaxo Group Limited, priority 2007, published 2010).

Assays:
human H1 receptor = molecular target: T1, human H1 receptor (Homo sapiens, UniProt P35367); test: Histamine H1 functional antagonist assay: determination of functional pKi values (FLIPR); format: cell-based; conditions: CHO cells expressing human H1 receptor, histamine at EC80, read-out: average pKi (pKb) at H1 (converted)
T1 construct: expressed in transfected cells
Description: The human H1 receptor is cloned using known procedures described in the literature [Biochem. Biophys. Res. Commun., 201(2):894 (1994)]. Chinese hamster ovary (CHO) cells stably expressing the human H1 receptor are generated according to known procedures described in the literature [Br. J. Pharmacol., 117(6):1071 (1996)]. The histamine H1 cell line is seeded into non-coated black-walled clear bottom 384-well tissue culture plates in alpha minimum essential medium (Gibco/Invitrogen, cat no. 22561-021), supplemented with 10′)/0 dialysed foetal calf serum (Gibco/Invitrogen cat no. 12480-021) and 2 mM L-glutamine (Gibco/Invitrogen cat no 25030-024) and is maintained overnight at 5% CO2, 37° C. Excess medium is removed from each well to leave 10 μl. 30 μl loading dye (250 μM Brilliant Black, 2 μM Fluo-4 diluted in Tyrodes buffer+probenecid (145 mM NaCl, 2.5 mM KCl, 10 mM HEPES, 10 mM D-glucose, 1.2 mM MgCl2, 1.5 mM CaCl2, 2.5 mM probenecid, pH adjusted to 7.40 with NaOH 1.0 M)) is added to each well and the plates are incubated for 60 min at 5% CO2, 37° C. 10 μl of test compound, diluted to the required concentration in Tyrodes buffer+probenecid (or 10 μl Tyrodes buffer+probenecid as a control) is added to each well and the plate is incubated for 30 min at 37° C., 5% CO2. The plates are then placed into a FLIPR™(Molecular Devices, UK) to monitor cell fluorescence (λex=488 nm, λEM=540 nm) in the manner described in Sullivan et al., (In: Lambert DG (ed.), Calcium Signaling Protocols, New Jersey: Humana Press, 1999, 125-136) before and after the addition of 10 μl histamine at a concentration that results in the final assay concentration of histamine being EC80. Functional antagonism is indicated by a suppression of histamine induced increase in fluorescence, as measured by the FLIPR™ system (Molecular Devices). By means of concentration effect curves, functional affinities are determined using standard pharmacological mathematical analysis.

histamine H3 receptor = molecular target: T2, histamine H3 receptor (Homo sapiens, UniProt Q9Y5N1); test: Histamine H3 functional antagonist assay (GTPγS, membranes); format: biochemical; conditions: CHO K1 membranes, [35S]-GTPγS, histamine at EC80; read-out: average pKi (pKb) at H3 (converted)
T2 construct: expressed in transfected cells; host or cells: CHO K1 cells with pSwitch/pGeneH3 (GeneSwitch, mifepristone-induced), clone 3H3; membrane preparation
Description: The histamine H3 cDNA is isolated from its holding vector, pcDNA3.1 TOPO (InVitrogen), by restriction digestion of plasmid DNA with the enzymes BamH1 and Not-1 and is ligated into the inducible expression vector pGene (InVitrogen) digested with the same enzymes. The GeneSwitchTM system (a system where in transgene expression is switched off in the absence of an inducer and switched on in the presence of an inducer) is performed as described in U.S. Pat. Nos. 5,364,791; 5,874,534; and 5,935,934. Ligated DNA is transformed into competent DH5α E. coli host bacterial cells and is plated onto Luria Broth (LB) agar containing ZeocinTM (an antibiotic which allows the selection of cells expressing the sh ble gene which is present on pGene and pSwitch) at 50 μgml^-1. Colonies containing the re-ligated plasmid are identified by restriction analysis. DNA for transfection into mammalian cells is prepared from 250 ml cultures of the host bacterium containing the […]3 plasmid and is isolated using a DNA preparation kit (Qiagen Midi-Prep) as per manufacturers guidelines (Qiagen). CHO K1 cells previously transfected with the pSwitch regulatory plasmid (InVitrogen) are seeded at 2×10^6 cells per T75 flask in Complete Medium, containing Hams F12 (GIBCOBRL, Life Technologies) medium supplemented with 10% v/v dialysed foetal bovine serum, L-glutamine, and hygromycin (100 μgml^-1), 24 h prior to use. Plasmid DNA is transfected into the cells using Lipofectamine plus according to the manufacturer's guidelines (InVitrogen). 48 h post transfection, cells are placed into complete medium supplemented with 500 μgml^-1 ZeocinTM. 10-14 days post selection, 10 nM Mifepristone (InVitrogen) is added to the culture medium to induce the expression of the receptor. 18 h post induction, cells are detached from the flask using ethylenediamine tetra-acetic acid (EDTA; 1:5000; InVitrogen), following several washes with PBS, pH 7.4 and are resuspended in Sorting Medium containing Minimum Essential Medium (MEM), without phenol red, and are supplemented with Earles salts and 3% Foetal Clone II (Hyclone). Approximately 1×10^7 cells are examined for receptor expression by staining with a rabbit polyclonal antibody, 4a, raised against the N-terminal domain of the histamine H3 receptor, are incubated on ice for 60 min, followed by two washes in sorting medium. Receptor bound antibody is detected by incubation of the cells for 60 min on ice with a goat anti rabbit antibody, conjugated with Alexa 488 fluorescence marker (Molecular Probes). Following two further washes with Sorting Medium, cells are filtered through a 50 μm FilconTM (BD Biosciences) and then are analysed on a FACS Vantage SE Flow Cytometer fitted with an Automatic Cell Deposition Unit. Control cells are non-induced cells treated in an analogous manner. Positively stained cells are sorted as single cells into 96-well plates, containing Complete Medium containing 500 μgml^-1 ZeocinTM and are allowed to expand before reanalysis for receptor expression via antibody and ligand binding studies. One clone, 3H3, is selected for membrane preparation. All steps of the protocol are carried out at 4° C. and with pre-cooled reagents. The cell pellet is resuspended in 10 volumes of homogenisation buffer (50 mM N-2-hydroxyethylpiperazine-N'-2-ethanesulfonic acid (HEPES), 1 mM ethylenediamine tetra-acetic acid (EDTA), pH 7.4 with KOH, supplemented with 10^-6 M leupeptin (acetyl-leucyl-leucyl-arginal; Sigma L2884), 25 μgml^-1 bacitracin (Sigma B0125), 1 mM phenylmethylsulfonyl fluoride (PMSF) and 2×10^-6 M pepstain A (Sigma)). The cells are then homogenised by 2×15 sec bursts in a 1 L glass Waring blender, followed by centrifugation at 500 g for 20 min. The supernatant is then spun at 48,000 g for 30 min. The pellet is resuspended in homogenisation buffer (4× the volume of the original cell pellet) by vortexing for 5 sec, followed by homogenisation in a Dounce homogeniser (10-15 strokes). […]

T1 sequence (P35367 whole entry): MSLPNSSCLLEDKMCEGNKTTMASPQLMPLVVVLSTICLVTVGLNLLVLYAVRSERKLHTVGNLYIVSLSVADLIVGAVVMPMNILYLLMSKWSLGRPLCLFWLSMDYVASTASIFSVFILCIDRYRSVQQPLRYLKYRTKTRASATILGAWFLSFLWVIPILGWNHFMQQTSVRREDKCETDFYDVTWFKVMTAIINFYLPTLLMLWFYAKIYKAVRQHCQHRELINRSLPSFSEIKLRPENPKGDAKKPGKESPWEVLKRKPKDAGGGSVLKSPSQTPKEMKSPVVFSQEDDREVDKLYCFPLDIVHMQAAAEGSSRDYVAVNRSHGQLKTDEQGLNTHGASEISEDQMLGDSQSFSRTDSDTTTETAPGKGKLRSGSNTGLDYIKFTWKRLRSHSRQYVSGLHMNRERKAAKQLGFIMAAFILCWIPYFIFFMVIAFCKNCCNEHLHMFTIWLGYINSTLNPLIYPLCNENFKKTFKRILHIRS
T2 sequence (Q9Y5N1 whole entry, species assumed): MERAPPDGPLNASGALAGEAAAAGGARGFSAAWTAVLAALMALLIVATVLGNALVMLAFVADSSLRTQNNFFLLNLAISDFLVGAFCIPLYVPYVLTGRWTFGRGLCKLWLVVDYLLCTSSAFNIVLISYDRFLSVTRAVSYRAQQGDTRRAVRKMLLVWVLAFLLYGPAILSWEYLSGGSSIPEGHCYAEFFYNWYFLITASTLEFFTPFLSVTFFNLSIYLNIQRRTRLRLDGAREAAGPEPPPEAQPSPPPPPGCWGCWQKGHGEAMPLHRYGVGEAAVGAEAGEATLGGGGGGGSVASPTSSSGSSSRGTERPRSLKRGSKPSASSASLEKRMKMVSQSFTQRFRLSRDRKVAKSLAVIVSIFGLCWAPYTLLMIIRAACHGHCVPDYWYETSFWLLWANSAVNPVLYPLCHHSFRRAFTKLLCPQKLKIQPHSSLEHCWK

Ki (human H1 receptor) [nM]	Ki (histamine H3 receptor) [nM]	SMILES
< 100	> 316	CCCCCCc1cc(OC2CCN(C[C@H]3CC[C@H](C(=O)N(CC)CC)CC3)CC2)c2ncccc2c1 [Example 53, trans-N,N-diethyl-4-({4-[(6-hexyl-8-quinolinyl)oxy]-1-piperidinyl}methyl) cyclohexane carboxamide]
< 100	> 3160	CCCCc1cc(OC2CCN(CC(=O)NCCCOC)CC2)c2ncccc2c1 [Example 8, 2-{4-[(6-butyl-8-quinolinyl)oxy]-1-piperidinyl}-N-[3-(methyloxy)propyl] acetamide]
< 100	> 316	CCCCc1cc(OC2CCN(C[C@H]3CC[C@H](C(=O)Nc4ccc(C)cc4)CC3)CC2)c2ncccc2c1 [Example 59, trans-4-({4-[(6-butyl-8-quinolinyl)oxy]-1-piperidinyl}methyl)-N-(4-methylphenyl) cyclohexane carboxamide]
< 10	> 316	CCCCc1cc(OC2CCN(C[C@H]3CC[C@H](C(=O)NCCCOC)CC3)CC2)c2ncccc2c1 [Example 47, trans-4-({4-[(6-butyl-8-quinolinyl)oxy]-1-piperidinyl}methyl)-N-[3-(methyloxy)propyl]cyclohexane carboxamide]
< 10	> 3160	CCCCc1cc(OC2CCN(CCCCC(=O)NCCC)CC2)c2ncccc2c1 [Example 28, 5-{4-[(6-butyl-8-quinolinyl)oxy]-1-piperidinyl}-N-propylpentanamide]
< 10	> 316	CCCCc1cc(OC2CCN(CCNC(=O)CCCOC)CC2)c2ncccc2c1 [Example 81, N-(2-{4-[(6-butyl-8-quinolinyl)oxy]-1-piperidinyl}ethyl)-4-(methyloxy) butanamide]
< 10	> 316	CCCCc1cc(OC2CCN(CCNC(=O)CCOC)CC2)c2ncccc2c1 [Example 80, N-(2-{4-[(6-butyl-8-quinolinyl)oxy]-1-piperidinyl}ethyl)-3-(methyloxy) propanamide]
< 10	> 3160	CCCCc1cc(OC2CCN(CCCCC(=O)N3CCCCC3)CC2)c2ncccc2c1 [Example 31, 6-butyl-8-({1-[5-oxo-5-(1-piperidinyl)pentyl]-4-piperidinyl}oxy) quinoline]
< 100	> 316	CCCCc1cc(OC2CCN(CCC3CCN(C(C)=O)CC3)CC2)c2ncccc2c1 [Example 3, 8-({1-[2-(1-Acetyl-4-piperidinyl)ethyl]-4-piperidinyl}oxy)-6-butylquinoline]
< 10	> 316	CCCCc1cc(OC2CCN(CCCNC(=O)CC)CC2)c2ncccc2c1 [Example 86, N-(3-{4-[(6-Butyl-8-quinolinyl)oxy]-1-piperidinyl}propyl)propanamide]
< 100	> 316	CCCCc1cc(OC2CCN(C[C@H]3CC[C@H](C(=O)NCC(C)(C)C)CC3)CC2)c2ncccc2c1 [Example 46, trans-4-({4-[(6-butyl-8-quinolinyl)oxy]-1-piperidinyl}methyl)-N-(2,2-dimethylpropyl) cyclohexane carboxamide]
< 10	> 3160	CCCCc1cc(OC2CCN(CCCC(=O)NCC)CC2)c2ncccc2c1 [Example 20, 4-{4-[(6-butyl-8-quinolinyl)oxy]-1-piperidinyl}-N-ethylbutanamide]
< 10	> 316	CCCCc1cc(OC2CCN(C[C@H]3CC[C@H](C(=O)NCCC(C)C)CC3)CC2)c2ncccc2c1 [Example 61, trans-4-({4-[(6-butyl-8-quinolinyl)oxy]-1-piperidinyl}methyl)-N-(3-methylbutyl) cyclohexane carboxamide]
< 10	> 316	CCCCc1cc(OC2CCN(CCCC(=O)NC(C)(C)C)CC2)c2ncccc2c1 [Example 6, 4-{4-[(6-Butyl-8-quinolinyl)oxy]-1-piperidinyl}-N-(1,1-dimethylethyl)butanamide]
< 100	> 3160	CCCCc1cc(OC2CCN(CCCC(=O)N3CCCCC3)CC2)c2ncccc2c1 [Example 24, 6-butyl-8-({1-[4-oxo-4-(1-piperidinyl)butyl]-4-piperidinyl}oxy)quinoline]
< 10	> 3160	CCCCc1cc(OC2CCN(CCC(=O)NC(C)(C)C)CC2)c2ncccc2c1 [Example 17, 3-{4-[(6-butyl-8-quinolinyl)oxy]-1-piperidinyl}-N-(1,1-dimethylethyl) propanamide]
< 10	> 316	CCCCc1cc(OC2CCN(CCCNC(=O)CCOC)CC2)c2ncccc2c1 [Example 82, N-(3-{4-[(6-butyl-8-quinolinyl)oxy]-1-piperidinyl}propyl)-3-(methyloxy) propanamide]
< 10	> 316	CCCCc1cc(OC2CCN(C[C@H]3CC[C@H](C(=O)NCCC)CC3)CC2)c2ncccc2c1 [Example 45, Trans-4-({4-[(6-butyl-8-quinolinyl)oxy]-1-piperidinyl}methyl)-N-propylcyclohexane carboxamide]
< 100	> 316	CCCCc1cc(OC2CCN(CCCNC(=O)CCCOC)CC2)c2ncccc2c1 [Example 83, N-(3-{4-[(6-butyl-8-quinolinyl)oxy]-1-piperidinyl}propyl)-4-(methyloxy) butanamide]
> 1000	> 316	CCCCc1cc(OC2CCN(CC(=O)NCCC)CC2)c2ncccc2c1 [Example 10, 2-{4-[(6-butyl-8-quinolinyl)oxy]-1-piperidinyl}-N-propylacetamide]
< 10	> 3160	CCCCc1cc(OC2CCN(CCCC(=O)NCCCOC)CC2)c2ncccc2c1 [Example 21, 4-{4-[(6-butyl-8-quinolinyl)oxy]-1-piperidinyl}-N-[3-(methyloxy)propyl] butanamide]
< 10	–	CCCCc1cc(OC2CCN(CCCCC(=O)NC(C)C)CC2)c2ncccc2c1 [Example 32, 5-{4-[(6-butyl-8-quinolinyl)oxy]-1-piperidinyl}-N-(1-methylethyl) pentanamide]
